From PubChem BioAssay AID179 (DTP/NCI, 2004)
The source made the active and inactive calls.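 How the source made its calls: active means compounds giving half or more protection of infected cells from virus-caused growth loss, again on retest; inactive means the rest.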

System: CEM cells HIV-1 protection, formazan growth assay
Assay: NCI AIDS Antiviral Assay
Conditions: for IC50: measured here: growth of uninfected CEM cells
Method in brief: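 Category rules: moderately active means at least 50% protection on retest, and confirmed active means 100% protection reproducibly. The underlying data came from a formazan growth assay in HIV-1-infected CEM cells.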

Row | SMILES | EC50 [µM] | IC50 [µM] | outcome
1 | COc1ccccc1C1c2cc3c(cc2OC(N2CCCC2)C1C)OCO3 (configuration not stated) | > 200 | 16.2 | 
2 | CC1CC2OC(/C=C/C=C/C=C/C=C\C=C\C(O)=C3/C(=O)C(C(C)C)N(C)C3=O)C(O)C2O1 (configuration not stated) | > 200 | 107 | 
3 | O=C1CCCCCCC2=C1C(Sc1ccccc1)CC2 (configuration not stated) | > 200 | 30.9 | 
4 | CC(C)(C)[Si](C)(C)OCC1OC(n2ccc(N)nc2=O)C(O[Si](C)(C)C(C)(C)C)C1O[Si](C)(C)C(C)(C)C (configuration not stated) | > 200 | 10.2 | 
5 | O=c1c2ccccc2[nH]c(=S)n1-c1ccc(Br)cc1 | > 40.7 | > 40.7 | 
6 | O=C(NC1C/C(=N/O)c2c(Br)sc(Br)c21)C(F)(F)F (configuration not stated) | > 200 | 53.7 | 
7 | Nc1ccn(C2CSC(CO)O2)c(=O)n1 (configuration not stated) | 0.145 | 10 | 
8 | N#CC1CC(c2cccs2)Nc2ccccc2N1 (configuration not stated) | > 141 | 46.8 | 
9 | O=C(NC1C(=O)NNC1c1ccccc1Cl)c1ccccc1 (configuration not stated) | > 158 | > 158 | 
10 | N[C@H]1C2C3CC4C5CC(C42)C1(c1ccccc1)C53 (some centres not stated) | > 661 | 53.7 | 
11 | O=C1CCCCCCCCCCOC(=O)CCCCCCCCCCO1 | > 10.2 | > 10.2 | 
12 | CCCCc1ccc(Nc2nc(Cl)c3ccn(C4CC(Oc5ccc(C)cc5)C(COc5ccc(C)cc5)O4)c3n2)cc1 (configuration not stated) | > 200 | > 200 | 
13 | CCOc1ccc(NC(=S)/N=C/c2c(O)cc(C)oc2=O)cc1 |  |  | inactive
14 | CC(O)CN(N)CC(C)O (configuration not stated) |  |  | inactive
15 | O=C(CC1(O)C(=O)Nc2c(Cl)cc(Cl)cc21)c1ccc(F)cc1 (configuration not stated) | > 28.2 | > 28.2 | 
16 | Cc1c(C#N)c(=O)[nH]c(=O)n1CCN1CCN(C(=O)NCCCCCCNC(=O)N2CCN(CCn3c(C)c(C#N)c(=O)[nH]c3=O)CC2)CC1 |  |  | inactive
17 | Cc1ccc(NC(=O)C2C(=O)N(c3ccc(C)cc3)C(=O)/C2=N\NC(N)=S)cc1 (configuration not stated) | > 12.6 | > 12.6 | 
18 | CCCCNC(=S)N/N=C/c1cccc(C)n1 | > 200 | 12 | 
19 | COC(=O)c1c(C)cccc1C1CN=NC12Cc1c(C)cccc1C2=O (configuration not stated) | 36.3 | 72.4 | 
20 | COc1ccc(-c2sc(/N=C/c3ccc(-c4ccccc4)cc3)c(C#N)c2C)cc1OC | > 200 | 30.2 | 
21 | CCN(CC)Cc1c(/C=C\c2cc(OC)c(OC)c(OC)c2)ccc(OC)c1O | > 200 | 1.1 | 

Row | SMILES | EC50 [µM] | IC50 [µM] | outcome
22 | ONC1=Nc2cc(Cl)ccc2C(=S)N2CSCC12 (configuration not stated) | > 200 | > 200 | 
23 | COc1ccc(-c2oc3cc(OC(C)=O)cc(OC(C)=O)c3c(=O)c2OC)cc1 |  |  | inactive
24 | COC(=O)C(=O)C(C(=O)C(=O)Nc1cc([N+](=O)[O-])ccc1[N+](=O)[O-])c1nc2ccc(C(=O)c3ccccc3)cc2[nH]c1=O (configuration not stated) | > 158 | 83.2 | 
25 | Cc1cc(CO)c(O)c(CN(CC(=O)O)CC(=O)O)c1 | > 200 | 141 | 
26 | CC12CC3(O)OC(O1)C1(COC(=O)c4ccccc4)C3C[C@@]21OC1OC(COC(=O)c2cc(O)c(O)c(O)c2)C(O)C(O)C1O (some centres not stated) |  |  | inactive
27 | CN1C(=O)[C@@H]2[C@@H]3c4ccccc4N(S(=O)(=O)C(F)(F)F)[C@@H]3c3[nH]c4ccccc4c3[C@@H]2C1=O | > 200 | 9.33 | 
28 | CN(C)CCNC(=O)c1ccc(Cl)c2c(Nc3ccc(S(=O)(=O)N=C(N)N)cc3)c3ccccc3nc12 |  |  | inactive
29 | Cc1ccc([N+](=O)[O-])cc1NC1=NCCO1 | > 200 | 186 | 
30 | Cc1cccc(NC(=S)NC(=O)c2ccccc2)n1 | > 200 | > 200 | 
31 | O=C1/C(=C/c2ccc([N+](=O)[O-])cc2)CCc2ccccc21 | > 7.24 | > 7.24 | 
32 | CCCCOP(=O)(OCCCC)/C(C#N)=C/c1ccco1 | > 219 | 178 | 
33 | O=C(CCl)Nc1ccccc1-c1ccccc1NC(=O)CCl |  |  | inactive
34 | COC1/C=C\OC2(C)Oc3c(C)c(O)c4c(O)c(c(/C=N\O)c(O)c4c3C2=O)NC(=O)/C(C)=C\C=C/C(C)C(O)C(C)C(O)C(C)C(OC(C)=O)C1C (configuration not stated) | > 77.6 | 74.1 | 
35 | COc1ccc(CCN(C)CCCC(C#N)(c2ccc(OC)c(OC)c2)C(C)C)cc1OC (configuration not stated) | > 200 | > 200 | 
36 | FC(F)(F)c1ccc2nc(Nc3ccc(Cl)c(Cl)c3)c(-c3ccccc3)nc2c1 | > 12 | 8.13 | 
37 | CC1(C)c2ccccc2N2O[C@@H]3C(=O)N(c4ccccc4)C(=O)[C@@H]3C21c1ccccc1 (some centres not stated) | > 36.3 | > 36.3 | 
38 | Cc1nn(C(=O)c2ccc(Cl)cc2)c2c1C(c1ccc([N+](=O)[O-])cc1)SC(N)=N2 (configuration not stated) | > 200 | 97.7 | 
39 | COc1ccc2c(c1)c(=O)c1ccccc1n2/C=C/C(=O)O | > 617 | 105 | 
40 | OCCCCCNc1ccnc2cc(Cl)ccc12 | > 832 | 47.9 | 
41 | CC1=C2c3ccccc3N(C(=O)/C=C/C(=O)O)[C@H]2[C@H]2C(=O)OC(=O)[C@H]2C1 | > 200 | 151 | 
42 | COc1ccc(-c2c3c(n(C4OC(COC(C)=O)C(OC(C)=O)C(OC(C)=O)C4OC(C)=O)c(=S)c2C#N)CCCC3)cc1 (configuration not stated) | > 200 | 89.1 | 
